# Test results: article PMC9329436, “Optimization of the 4-anilinoquin(az)oline scaffold as epidermal growth factor receptor (EGFR) inhibitors for chordoma utilizing a toxicology profiling assay platform” (Scientific Reports, 2022)
# Where two headings read alike, the source gives them in different places.
# Experiments:
# Format in all cases: biochemical
# [1] = biological target: T1, 320 wild-type protein kinases (Homo sapiens, UniProt Q9UBE8); details: NLK, singlicate
# T1 sequence (Q9UBE8 1-527): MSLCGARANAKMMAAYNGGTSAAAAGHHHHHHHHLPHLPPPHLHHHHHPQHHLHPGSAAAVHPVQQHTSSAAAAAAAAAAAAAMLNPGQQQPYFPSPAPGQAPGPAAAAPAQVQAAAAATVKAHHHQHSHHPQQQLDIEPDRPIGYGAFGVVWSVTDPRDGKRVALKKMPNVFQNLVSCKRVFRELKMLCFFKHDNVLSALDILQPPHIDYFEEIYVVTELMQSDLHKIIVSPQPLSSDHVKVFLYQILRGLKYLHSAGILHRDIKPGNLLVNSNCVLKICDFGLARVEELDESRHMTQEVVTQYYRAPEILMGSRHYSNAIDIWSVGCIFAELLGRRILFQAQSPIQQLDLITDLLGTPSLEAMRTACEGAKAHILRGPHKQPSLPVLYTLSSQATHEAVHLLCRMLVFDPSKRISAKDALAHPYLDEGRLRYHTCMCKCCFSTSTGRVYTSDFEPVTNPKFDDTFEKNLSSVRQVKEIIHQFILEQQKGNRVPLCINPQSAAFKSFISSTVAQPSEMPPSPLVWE
# From the text: (§1) Table S4. Profiling of two compounds at two concentrations against 320 wild-type protein kinases; singlicate measurement; Residual activities (% of control).
# [2] = biological target: T2, 320 wild-type protein kinases (Homo sapiens, UniProt Q8TD19); details: singlicate
# T2 sequence (Q8TD19 1-979): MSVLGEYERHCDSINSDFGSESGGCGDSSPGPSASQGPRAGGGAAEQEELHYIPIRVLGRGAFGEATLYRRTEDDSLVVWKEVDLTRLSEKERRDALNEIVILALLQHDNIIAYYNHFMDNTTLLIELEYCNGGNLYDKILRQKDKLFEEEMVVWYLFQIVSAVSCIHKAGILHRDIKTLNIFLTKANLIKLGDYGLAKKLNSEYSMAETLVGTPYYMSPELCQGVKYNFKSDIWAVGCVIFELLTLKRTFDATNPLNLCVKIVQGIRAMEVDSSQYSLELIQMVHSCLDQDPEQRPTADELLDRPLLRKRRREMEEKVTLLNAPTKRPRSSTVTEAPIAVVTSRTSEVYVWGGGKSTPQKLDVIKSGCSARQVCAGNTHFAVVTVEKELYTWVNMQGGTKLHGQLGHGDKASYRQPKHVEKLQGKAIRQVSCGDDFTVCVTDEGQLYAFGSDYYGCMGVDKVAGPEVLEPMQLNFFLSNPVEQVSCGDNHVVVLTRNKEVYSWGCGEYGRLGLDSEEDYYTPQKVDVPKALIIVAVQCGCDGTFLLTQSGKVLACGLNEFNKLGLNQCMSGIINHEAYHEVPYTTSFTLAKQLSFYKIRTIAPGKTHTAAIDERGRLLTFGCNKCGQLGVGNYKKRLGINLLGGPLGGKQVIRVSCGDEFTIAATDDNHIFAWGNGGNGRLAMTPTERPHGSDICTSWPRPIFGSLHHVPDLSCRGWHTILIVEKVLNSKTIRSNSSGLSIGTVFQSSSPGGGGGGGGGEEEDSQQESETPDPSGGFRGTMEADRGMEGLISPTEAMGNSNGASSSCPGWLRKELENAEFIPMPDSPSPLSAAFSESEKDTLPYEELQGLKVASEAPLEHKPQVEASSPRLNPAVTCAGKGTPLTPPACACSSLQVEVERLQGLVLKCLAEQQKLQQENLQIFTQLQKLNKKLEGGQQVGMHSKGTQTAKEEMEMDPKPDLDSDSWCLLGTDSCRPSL
# From the text: as §1
# [3] = biological target: 320 wild-type protein kinases (Homo sapiens, UniProt Q6IQ55); details: kinase TTBK2, singlicate
# From the text: as §1
# [4] = biological target: 320 wild-type protein kinases (Homo sapiens, UniProt P09769); details: FGR, singlicate
# From the text: as §1
# [5] = biological target: 320 wild-type protein kinases (Homo sapiens, UniProt Q13882); details: BRK, singlicate
# From the text: as §1
# [6] = biological target: 320 wild-type protein kinases (Homo sapiens, UniProt Q9UIK4); details: singlicate
# From the text: as §1
# [7] = biological target: T3, 320 wild-type protein kinases (Homo sapiens, UniProt Q05513); details: PKC-zeta, singlicate
# T3 sequence (Q05513 1-592): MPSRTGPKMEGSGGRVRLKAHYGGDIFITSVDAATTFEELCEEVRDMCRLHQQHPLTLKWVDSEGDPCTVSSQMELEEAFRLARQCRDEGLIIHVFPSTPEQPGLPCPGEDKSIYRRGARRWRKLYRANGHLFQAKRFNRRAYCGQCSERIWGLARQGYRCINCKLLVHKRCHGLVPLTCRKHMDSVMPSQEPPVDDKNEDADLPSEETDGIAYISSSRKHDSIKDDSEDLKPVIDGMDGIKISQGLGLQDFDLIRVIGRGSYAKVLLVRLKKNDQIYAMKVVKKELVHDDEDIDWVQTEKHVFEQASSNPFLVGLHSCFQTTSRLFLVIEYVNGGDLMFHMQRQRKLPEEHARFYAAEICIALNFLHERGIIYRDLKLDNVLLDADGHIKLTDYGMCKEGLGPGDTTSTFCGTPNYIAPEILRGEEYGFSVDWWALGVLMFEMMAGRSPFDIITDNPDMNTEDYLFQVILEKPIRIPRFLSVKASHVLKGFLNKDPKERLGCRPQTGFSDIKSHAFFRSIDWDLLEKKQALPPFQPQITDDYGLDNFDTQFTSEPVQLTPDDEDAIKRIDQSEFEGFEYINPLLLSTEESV
# From the text: as §1
# [8] = biological target: 320 wild-type protein kinases (Homo sapiens, UniProt P49760); details: singlicate
# From the text: as §1
# 320 wild-type protein kinases (Homo sapiens, UniProt Q9UIK4), sequence (Q9UIK4 whole entry): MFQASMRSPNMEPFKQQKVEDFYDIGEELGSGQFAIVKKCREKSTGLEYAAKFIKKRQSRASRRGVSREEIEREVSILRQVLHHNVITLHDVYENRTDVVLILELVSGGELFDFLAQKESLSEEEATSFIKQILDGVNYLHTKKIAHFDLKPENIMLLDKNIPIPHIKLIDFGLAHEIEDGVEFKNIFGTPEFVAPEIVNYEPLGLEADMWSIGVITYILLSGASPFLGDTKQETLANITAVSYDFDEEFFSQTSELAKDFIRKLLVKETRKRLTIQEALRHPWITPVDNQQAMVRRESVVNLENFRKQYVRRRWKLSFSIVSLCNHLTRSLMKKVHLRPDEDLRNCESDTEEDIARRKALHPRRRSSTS
# 320 wild-type protein kinases (Homo sapiens, UniProt Q13882), sequence (Q13882 whole entry): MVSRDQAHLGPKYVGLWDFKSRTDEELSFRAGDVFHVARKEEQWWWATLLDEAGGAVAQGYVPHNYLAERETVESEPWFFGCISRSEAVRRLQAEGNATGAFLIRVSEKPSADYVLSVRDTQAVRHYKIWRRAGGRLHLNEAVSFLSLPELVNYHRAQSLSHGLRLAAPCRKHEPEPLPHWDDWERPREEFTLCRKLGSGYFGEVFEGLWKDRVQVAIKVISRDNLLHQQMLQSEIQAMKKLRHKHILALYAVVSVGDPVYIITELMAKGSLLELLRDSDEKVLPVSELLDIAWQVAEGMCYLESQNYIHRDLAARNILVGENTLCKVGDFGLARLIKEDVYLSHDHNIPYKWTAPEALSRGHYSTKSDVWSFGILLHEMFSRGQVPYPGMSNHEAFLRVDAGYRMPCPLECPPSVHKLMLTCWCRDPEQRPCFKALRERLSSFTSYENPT
# 320 wild-type protein kinases (Homo sapiens, UniProt Q6IQ55), sequence (Q6IQ55 whole entry): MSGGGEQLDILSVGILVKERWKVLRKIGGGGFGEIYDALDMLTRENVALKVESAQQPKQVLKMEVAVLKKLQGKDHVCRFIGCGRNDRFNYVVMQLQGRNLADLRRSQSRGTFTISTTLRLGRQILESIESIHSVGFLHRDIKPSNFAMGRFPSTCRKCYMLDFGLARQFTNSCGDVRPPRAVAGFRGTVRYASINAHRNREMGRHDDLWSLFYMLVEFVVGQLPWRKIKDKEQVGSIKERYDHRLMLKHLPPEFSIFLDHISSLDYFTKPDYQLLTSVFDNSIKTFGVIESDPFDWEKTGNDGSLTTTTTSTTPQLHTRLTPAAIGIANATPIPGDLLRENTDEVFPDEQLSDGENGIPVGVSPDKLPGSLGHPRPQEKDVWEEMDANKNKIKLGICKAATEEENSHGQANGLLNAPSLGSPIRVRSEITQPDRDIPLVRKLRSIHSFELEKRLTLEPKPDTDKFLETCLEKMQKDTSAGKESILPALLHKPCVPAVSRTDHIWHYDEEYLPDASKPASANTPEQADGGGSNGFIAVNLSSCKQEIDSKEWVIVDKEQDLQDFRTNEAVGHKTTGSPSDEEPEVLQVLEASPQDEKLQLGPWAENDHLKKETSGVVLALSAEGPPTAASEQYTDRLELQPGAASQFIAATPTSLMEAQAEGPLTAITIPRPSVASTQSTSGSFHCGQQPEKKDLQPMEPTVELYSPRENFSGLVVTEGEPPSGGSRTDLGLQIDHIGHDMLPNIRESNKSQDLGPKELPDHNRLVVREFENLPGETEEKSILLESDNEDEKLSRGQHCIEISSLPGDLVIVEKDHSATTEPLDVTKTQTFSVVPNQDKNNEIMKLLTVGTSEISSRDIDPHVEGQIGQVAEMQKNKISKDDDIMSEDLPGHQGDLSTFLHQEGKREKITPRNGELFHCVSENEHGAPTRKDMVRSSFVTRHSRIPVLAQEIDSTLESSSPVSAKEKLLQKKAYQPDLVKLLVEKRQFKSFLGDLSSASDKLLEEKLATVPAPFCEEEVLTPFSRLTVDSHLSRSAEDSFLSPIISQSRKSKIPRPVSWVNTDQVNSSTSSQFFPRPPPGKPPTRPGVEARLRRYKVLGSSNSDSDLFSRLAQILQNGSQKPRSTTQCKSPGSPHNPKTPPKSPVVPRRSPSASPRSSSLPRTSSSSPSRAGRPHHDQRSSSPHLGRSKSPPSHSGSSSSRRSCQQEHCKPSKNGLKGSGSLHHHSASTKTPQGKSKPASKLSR
# 320 wild-type protein kinases (Homo sapiens, UniProt P49760), sequence (P49760 whole entry): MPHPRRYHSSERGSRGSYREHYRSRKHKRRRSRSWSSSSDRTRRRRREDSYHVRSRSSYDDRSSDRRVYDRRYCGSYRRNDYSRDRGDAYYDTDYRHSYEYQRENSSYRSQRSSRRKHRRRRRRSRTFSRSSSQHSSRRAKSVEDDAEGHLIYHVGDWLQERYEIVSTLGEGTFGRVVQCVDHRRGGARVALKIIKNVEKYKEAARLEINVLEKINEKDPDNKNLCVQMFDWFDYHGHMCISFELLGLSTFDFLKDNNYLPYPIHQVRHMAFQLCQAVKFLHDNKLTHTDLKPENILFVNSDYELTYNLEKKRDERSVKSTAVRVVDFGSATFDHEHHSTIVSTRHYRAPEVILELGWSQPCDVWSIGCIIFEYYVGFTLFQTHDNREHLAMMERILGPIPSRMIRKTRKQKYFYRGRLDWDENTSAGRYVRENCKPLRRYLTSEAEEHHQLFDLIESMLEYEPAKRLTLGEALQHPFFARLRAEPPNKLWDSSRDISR
# 320 wild-type protein kinases (Homo sapiens, UniProt P09769), sequence (P09769 whole entry): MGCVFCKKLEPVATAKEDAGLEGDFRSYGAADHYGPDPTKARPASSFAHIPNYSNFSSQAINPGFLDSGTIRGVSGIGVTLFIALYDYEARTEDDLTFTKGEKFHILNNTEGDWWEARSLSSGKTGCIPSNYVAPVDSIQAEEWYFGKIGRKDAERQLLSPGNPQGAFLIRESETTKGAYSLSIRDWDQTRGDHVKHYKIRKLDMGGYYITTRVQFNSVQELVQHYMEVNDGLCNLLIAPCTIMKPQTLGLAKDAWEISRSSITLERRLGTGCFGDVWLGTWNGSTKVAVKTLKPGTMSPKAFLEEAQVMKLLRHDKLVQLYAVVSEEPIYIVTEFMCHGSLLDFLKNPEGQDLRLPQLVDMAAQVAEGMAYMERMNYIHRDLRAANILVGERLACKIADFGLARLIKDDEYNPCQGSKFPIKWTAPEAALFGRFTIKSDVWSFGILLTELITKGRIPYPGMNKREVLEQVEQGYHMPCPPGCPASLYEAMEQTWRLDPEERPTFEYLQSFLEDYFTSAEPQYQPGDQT
SMILES,Residual activity ([1]; 1.0E-06 M),Residual activity ([1]; 1.0E-07 M),"Residual activity ([2]; NEK9, 1.0E-06 M)","Residual activity ([2]; NEK9, 1.0E-07 M)","Residual activity, TTBK2 ([3]; assay conc. 1.0E-06 M)","Residual activity, TTBK2 ([3]; assay conc. 1.0E-07 M)",Residual activity ([4]; 1.0E-06 M),Residual activity ([4]; 1.0E-07 M),Residual activity ([5]; 1.0E-06 M),Residual activity ([5]; 1.0E-07 M),"Residual activity ([6]; DAPK2, 1.0E-06 M)","Residual activity ([6]; DAPK2, 1.0E-07 M)",Residual activity ([7]; 1.0E-06 M),Residual activity ([7]; 1.0E-07 M),"Residual activity ([8]; CLK2, 1.0E-06 M)","Residual activity ([8]; CLK2, 1.0E-07 M)"
C#Cc1cc(Nc2ncnc3cc(I)ccc23)ccc1Cl [Compound 41],63 % of control,76 % of control,115 % of control,134 % of control,101 % of control,102 % of control,114 % of control,129 % of control,110 % of control,100 % of control,118 % of control,113 % of control,76 % of control,87 % of control,106 % of control,122 % of control
C#Cc1cc(Nc2ncnc3cc(OC)c(OC)cc23)ccc1Cl [Compound 45],31 % of control,83 % of control,91 % of control,111 % of control,95 % of control,96 % of control,94 % of control,125 % of control,70 % of control,96 % of control,101 % of control,132 % of control,85 % of control,73 % of control,105 % of control,119 % of control
